How the values were obtained:
[1] = molecular target: T1, active form p38 MAP kinase (Homo sapiens, UniProt Q16539); assay: Measurement of the p38 MAP kinase inhibitory activity (32P uptake into Myelin Basic Protein); type: biochemical; details: 260 ng active form p38 MAP kinase, 1 μg Myelin Basic Protein, 2.5 μM ATP solution, 30° C. for 60 minutes
T1 construct: made in house; host or cells: Sf-21 insect cells, baculovirus BAC-HP38 co-infected with BAC-caMKK3
Procedure: (1) Cloning of Human p38 MAP Kinase Gene and Preparation of Recombinant Baculovirus
Cloning of human p38 MAP kinase gene was performed by a PCR method using a primer set P38-U:
(3) Preparation of Active Form p38 MAP Kinase
The Sf-21 cells were seeded on 100 ml Sf-900II SFM medium (GIBCOBRL) to 1×10^6 cells/mL and cultured at 27° C. for 24 hours. After each 0.2 mL of the virusstock BAC-HP38 of recombinant Baculovirus and BAC-caMKK3 were added, the culturing was further performed for 48 hours. After the cells were separated from the culturing solution by centrifugation (3000 rpm, 10 min), the cells were washed twice with PBS. After the cells were suspended in 10 ml Lysis buffer (25 mM HEPES (pH 7.5), 1% Triton X, 130 mM NaCl, 1 mM EDTA, 1 mM DTT, 25 mM β-glycerophosphate, […], 1 mM APMSF, 1 mM Sodium orthovanadate), the cells were lysed by treating twice with a homogenizer (POLYTRON) at 20000 rpm for 2 minutes. By using Anti-FLAG M2 Affinity Gel (Eastman Chemical), active form p38 MAP kinase was purified from the supernatant obtained by centrifugation (40000 rpm, 45 minutes).
(4) Measurement of the p38 MAP Kinase Inhibitory Activity
2.5 μL of a test compound dissolved in DMSO was added to 37.5 μL reaction solution (25 mM HEPES (pH 7.5), 10 mM Magnesium Acetate) containing 260 ng active form p38 MAP kinase and 1 μg Myelin Basic Protein, which was maintained at 30° C. for 5 minutes. The reaction was initiated by adding 10 μL ATP solution (2.5 μM ATP, 0.1 μCi [g-^32P]ATP). After the reaction was performed at 30° C. for 60 minutes, the reaction was stopped by adding 50 μL 20% TCA solution. After the reaction solution was allowed to stand at 0° C. for 20 minutes, an acid insoluble fraction was transferred to GF/C filter (Packard Japan) using Cell Harvester (Packard Japan) and washed with 250 mM H3PO4. After drying at 45° C. for 60 minutes, […] Microscint 0 (Packard Japan) was added and the radioactivity was measured with a TopCount (Packard Japan). The concentration (IC50 value) necessary for inhibiting uptake of ^32P into an acid insoluble fraction by 50% was calculated with PRISM 2.01 (Graphpad Software).

[2] = system: TNF-α production in THP-1 cells; assay: Measurement of TNF-α production inhibitory activity in LPS-stimulated THP-1 cells (ELISA); type: cell-based; details: Homo sapiens, LPS 5 μg/mL, 4 hours, TNF-α in supernatant by ELISA
Procedure: Measurement of TNF-α Production Inhibitory Activity
After THP-1 cells which had been cultured in PRMI 1640 medium (manufactured by Life Technologies, Inc.) containing 1% non-activated bovine fetal serum (manufactured by Life Technologies, Inc., U.S.A.) and 10 mM HEPES (pH 7.5) was plated on a 96-well plate to 1×10^5 cells/well, 1 μL test compound dissolved in DMSO was added to there. After incubation at 37° C. for 1 hour in a CO2 incubator, LPS (Wako Pure Chemicals) was added to the final concentration 5 μg/mL. After cultured at 37° C. for 4 hours in a CO2 incubator, the supernatant was obtained by centrifugation. The concentration of TNF-α in the supernatant was measured with ELISA (R&D System, Quantikine Kit). The concentration (IC50 value) necessary for inhibiting TNF-α production by 50% was calculated by PRIMS 2.01 (Graphpad Software).

[3] = system: MMP-13 production in human normal articular chondrocytes; assay: Measurement of MMP-13 production inhibitory activity in rhIL-1β-stimulated human normal articular chondrocytes (ELISA); type: cell-based; details: Chondrocyte, rhIL-1β 0.1 ng/mL, 24 hr, MMP-13 in culture supernatant by ELISA
Procedure: Measurement of MMP-13 Production Inhibitory Activity
Human normal articular chondrocytes (Camblex) were grown in a chondrocyte growth medium (CGM: Camblex), and the cells were suspended in a chondrocyte differentiation medium (CDM: Camblex) and plated on a 96 well plate at 2×10^4 cells/well (150 μL/well). After culturing for 3 days under 37° C., 5% CO2 conditions, the culture medium was exchanged to 0.1% BSA added α-modification of Eagle's (α-MEM: Gibco), and the cells were cultured for 4 hr. The compound was added thereto and, after culture for 1 hr, recombinant human IL-1β (rhIL-1β: R&D systems) was added at 0.1 ng/mL. After culture for 24 hr, the culture supernatant was recovered, and the concentration of MMP-13 in the culture supernatant was measured by the ELISA method (Amersham).

T1 sequence (Q16539 whole entry): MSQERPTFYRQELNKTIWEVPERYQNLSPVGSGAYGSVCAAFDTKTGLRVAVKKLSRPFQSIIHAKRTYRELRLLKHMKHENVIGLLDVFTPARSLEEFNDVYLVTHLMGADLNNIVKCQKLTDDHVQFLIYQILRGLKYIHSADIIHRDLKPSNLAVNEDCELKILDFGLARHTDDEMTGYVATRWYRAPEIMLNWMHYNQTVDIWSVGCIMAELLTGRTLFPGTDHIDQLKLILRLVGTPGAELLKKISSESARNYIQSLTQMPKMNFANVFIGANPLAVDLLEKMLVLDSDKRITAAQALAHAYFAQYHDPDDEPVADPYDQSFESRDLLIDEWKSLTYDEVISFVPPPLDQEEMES

IC50 [1] [µM] | IC50 [2] [µM] | Compound | IC50 [3] [µM]
0.0087 | 0.0095 | Cc1cc(-c2nc3cccnn3c2-c2ccnc(NC(=O)C3CC3)c2)ccc1F [Example 42-3, N-{4-[2-(4-fluoro-3-methylphenyl)imidazo[1,2-b]pyridazin-3-yl]pyridin-2-yl}cyclopropanecarboxamide] | 0.035
 | 0.01 | Cc1cc(-c2nc3cccnn3c2-c2ccnc(NC(=O)c3ccncc3)c2)ccc1F [Example 42-23, N-{4-[2-(4-fluoro-3-methylphenyl)imidazo[1,2-b]pyridazin-3-yl]pyridin-2-yl}isonicotinamide] | 0.014
0.0039 | 0.0025 | Cc1cc(-c2nc3cccnn3c2-c2ccnc(NC(=O)c3ccc4ncsc4c3)c2)ccc1F [Example 42-35, N-{4-[2-(4-fluoro-3-methylphenyl)imidazo[1,2-b]pyridazin-3-yl]pyridin-2-yl}-1,3-benzothiazole-6-carboxamide] | 0.0062
0.0049 | 0.001 | Cc1cc(-c2nc3cccnn3c2-c2ccnc(NC(=O)NCCC#N)c2)ccc1F [Example 51-14, N-(2-cyanoethyl)-N′-{4-[2-(4-fluoro-3-methylphenyl)imidazo[1,2-b]pyridazin-3-yl]pyridin-2-yl}urea] | 0.032
 | 0.0015 | Cc1ccc(C(=O)Nc2cc(-c3c(-c4ccc(F)c(C)c4)nc4cccnn34)ccn2)cn1 [Example 42-27, N-{4-[2-(4-fluoro-3-methylphenyl)imidazo[1,2-b]pyridazin-3-yl]pyridin-2-yl}-6-methylnicotinamide] | 0.016
0.007 | 0.01 | Cc1cc(-c2nc3cccnn3c2-c2ccnc(NC(=O)NCCO)c2)ccc1F [Example 51-11, N-{4-[2-(4-fluoro-3-methylphenyl)imidazo[1,2-b]pyridazin-3-yl]pyridin-2-yl}-N′-(2-hydroxyethyl)urea] | 0.064
0.0012 | 0.014 | COc1ccc(C(=O)Nc2cc(-c3c(-c4ccc(F)c(C)c4)nc4cccnn34)ccn2)cc1 [Example 21-16, N-{4-[2-(4-fluoro-3-methylphenyl)imidazo[1,2-b]pyridazin-3-yl]pyridin-2-yl}-4-methoxybenzamide] | 0.041

Further lines, the compound ahead of its results:

Compound | IC50 [1] [µM] | IC50 [2] [µM] | IC50 [3] [µM]
Cc1cccc(-c2nc3cccnn3c2-c2ccnc(NC(=O)Nc3ccccc3)c2)c1 [Example 26, N-{4-[2-(3-Methylphenyl)imidazo[1,2-b]pyridazin-3-yl]pyridin-2-yl}-N′-phenylurea] | 0.022 | 0.33 | 0.077
Cc1cccc(-c2nc3cccnn3c2-c2ccnc(NC(=O)c3ccccc3)c2)c1 [Example 19, N-{4-[2-(3-Methylphenyl)imidazo[1,2-b]pyridazin-3-yl]pyridin-2-yl}benzamide] |  | 0.018 | 0.073
Cc1cccc(-c2nc3cccnn3c2-c2ccnc(Nc3ccccc3C)c2)c1 [Example Compound 6-10, N-(2-methylphenyl)-4-[2-(3-methylphenyl)imidazo[1,2-b]pyridazin-3-yl]pyridin-2-amine] | 0.0026 | 0.0098 | 0.082
Cc1cccc(-c2nc3ccc(Cl)nn3c2-c2ccnc(NC3CCCCC3)c2)c1 [Example 2, 4-[6-Chloro-2-(3-methylphenyl)imidazo[1,2-b]pyridazin-3-yl]-N-cyclohexylpyridin-2-amine] | 0.19 | 0.028 | 0.011
Cc1cccc(-c2nc3ccc(Cl)nn3c2-c2ccnc(F)c2)c1 [Example 1, 6-Chloro-3-(2-fluoropyridin-4-yl)-2-(3-methylphenyl)imidazo[1,2-b]pyridazine] | 0.11 | 0.95 | 0.6
Cc1ccc(C(=O)Nc2cc(-c3c(-c4cccc(C)c4)nc4cccnn34)ccn2)cc1 [Example 20-1, 4-methyl-N-{4-[2-(3-methylphenyl)imidazo[1,2-b]pyridazin-3-yl]pyridin-2-yl}benzamide] | 0.0084 | 0.018 | 0.073
Cc1cccc(-c2nc3cccnn3c2-c2ccnc(F)c2)c1 [Example 4, 3-(2-fluoropyridin-4-yl)-2-(3-methylphenyl)imidazo[1,2-b]pyridazine] | 0.16 | 0.32 | 1.52
Cc1cc(-c2nc3cccnn3c2-c2ccnc(NC(=O)NC(C)C)c2)ccc1F [Example compound 28-5, N-{4-[2-(4-fluoro-3-methylphenyl)imidazo[1,2-b]pyridazin-3-yl]pyridin-2-yl}-N′-isopropylurea] | 0.014 | 0.064 | 0.064
Cc1cccc(-c2nc3cccnn3c2-c2ccnc(NCC3CC3)c2)c1 [Example 5, N-(Cyclopropylmethyl)-4-[2-(3-methylphenyl)imidazo[1,2-b]pyridazin-3-yl]pyridin-2-amine] | 0.0025 | 0.0039 | 0.011
Cc1cccc(-c2nc3cccnn3c2-c2ccnc(NC(=O)c3ccc(F)cc3)c2)c1 [Example compound 20-11, 4-fluoro-N-{4-[2-(3-methylphenyl)imidazo[1,2-b]pyridazin-3-yl]pyridin-2-yl}benzamide] | 0.014 | 0.0038 | 0.04
CCNC(=O)Nc1cc(-c2c(-c3ccc(F)c(C)c3)nc3cccnn23)ccn1 [Example compound 28-3, N-ethyl-N′-{4-[2-(4-fluoro-3-methylphenyl)imidazo[1,2-b]pyridazin-3-yl]pyridin-2-yl}urea] | 0.0079 | 0.045 | 0.57
Cc1cc(C(=O)Nc2cc(-c3c(-c4ccc(F)c(C)c4)nc4cccnn34)ccn2)ccn1 [Example 58, N-{4-[2-(4-Fluoro-3-methylphenyl)imidazo[1,2-b]pyridazin-3-yl]pyridin-2-yl}-2-methylisonicotinamide] |  | 0.0022 | 0.041
Cc1cccc(-c2nc3cccnn3c2-c2ccnc(NC(=O)C3CC3)c2)c1 [Example compound 20-10, N-{4-[2-(3-methylphenyl)imidazo[1,2-b]pyridazin-3-yl]pyridin-2-yl}cyclopropanecarboxamide] | 0.0097 | 0.0054 | 0.025
Cc1cc(-c2nc3cccnn3c2-c2ccnc(NC(=O)c3cccnc3)c2)ccc1F [Example 59, N-{4-[2-(4-Fluoro-3-methylphenyl)imidazo[1,2-b]pyridazin-3-yl]pyridin-2-yl}nicotinamide] |  | 0.0029 | 0.02
CC(=O)Nc1cc(-c2c(-c3cccc(C)c3)nc3ccc(Cl)nn23)ccn1 [Example 17, N-{4-[6-Chloro-2-(3-methylphenyl)imidazo[1,2-b]pyridazin-3-yl]pyridin-2-yl}acetamide] | 0.023 | 0.12 | 0.22
Cc1cccc(-c2nc3ccc(N(C)C)nn3c2-c2ccnc(NC3CCCCC3)c2)c1 [Example 7, 3-[2-(cyclohexylamino)pyridin-4-yl]-N,N-dimethyl-2-(3-methylphenyl)imidazo[1,2-b]pyridazin-6-amine] | 0.0087 | 0.0001 | 0.0051
